Assay [1] has as its system CYP27. Briefly: CYP27 expression in transfected macrophages with demethylation agent. It counts as cell-based, mouse. As to conditions: 0.5 μM, CMV promoter silenced by methylation. How it is done:
Red, in D, is the mitochondrial marker dye, green in C, is CYP27.
Macrophages were cultured and transfected the same as for the CHOP cells in Example 1 except that after transfection, 0.5 μM 5-azacytidine was included in all further incubations. […] Panels A and B in FIG. 11 are actually transfected cells, but not treated with 5-azacytidine.

The subject of assay [2] is CYP27. Particulars: promoter studies; cited from earlier work.

Molecules are shown by their SMILES.

Regarding `Nc1ncn([C@@H]2O[C@H](CO)[C@@H](O)[C@H]2O)c(=O)n1` [5-azacytidine], in the assay on CYP27 [1], the “effect on CYP27 expression in transfected macrophages” value was “expressed CYP27”.

As to `C[C@H](CCC(=O)O)[C@H]1CC[C@H]2[C@@H]3[C@H](O)C[C@@H]4C[C@H](O)CC[C@]4(C)[C@H]3C[C@H](O)[C@]12C` [cholic acid], in the assay with CYP27 [2], the “regulation of CYP27 expression” value is “downregulated”.

The values are drawn from patent US20070258961A1, “Cholesterol efflux and uses thereof” (priority 2002, published 2007).
